# Laboratory results from US4301177A, “(3-Methyl-2-butenyl)propanedioic acid mono (1,2-diphenylhydrazide) and salts thereof” (Istituto de Angeli S.p.A., priority 1979, dated 1981).
# Counter-ions that a name gives are not always drawn.
# Experiments:
# rats [1] = experiment: Effect on normal temperature of rats (Table VI); assay type: in vivo, male Sprague-Dawley rats
# Method: (§1) In the present study the test compounds were administered perorally by means of a stomach tube as an aqueous suspension in 5% acacia gum at a constant volume of 10 ml/kg to male Swiss mice and male Sprague-Dawley rats. Control rats and mice were given a corresponding volume of the aqueous suspension medium. The results were statistically evaluated by Dunnett's test (C. V. Dunnett.: J.A. Stat. Ass., 40, 1096, 1955).
# 6. Effect on normal temperature of rats
# The rectal temperature was measured at 30-minute intervals before and after administration of the test compound, that is, at -1.5, -1, -0.5, 0.5, 1, 1.5 and 2 hours, using groups of 10 rats each for each dosage level.
# (§2) Average values of the temperatures obtained in the treated rats were compared with those of control rats.
# rats [2] = experiment: Analgesic-anti-inflammatory activity, Randall and Selitto, brewer's yeast inflamed paw in rats (Table IV); assay type: in vivo, male Sprague-Dawley rats; details: for Analgesic Index: ratio to controls (1.0)
# Method: as §1
# 4. Analgesic-anti-inflammatory activity
# The analgesic-anti-inflammatory activity was evaluated in rats by the method of Randall and Selitto (Arch. Int. Pharmacodyn., 111, 409, 1957), using an analgesimeter to measure the minimum load that must be applied to a rat's hind paw to elicit a painful stimulus.
# Both the controls and the experimental rats were injected into the right hind paw with 0.1 ml of 20% brewer's yeast in sterile saline immediately before the administration of the test compound.
# The volume of the inflamed right hind paw was measured 1, 2 and 4 hours after the administration of the test compound.
# The analgesic-anti-inflammatory activity was evaluated using an "analgesic index" expressed as a ratio between the sum of the average weights (grams) necessary to provoke a painful stimulus at different times in treated and control animals.
# rats [3] = experiment: in vivo
# Method: as §1, with “medium.” for “medium. The results were statistically evaluated by Dunnett's test (C. V. Dunnett.: J.A. Stat. Ass., 40, 1096, 1955).”
# (§3) The acute toxicity was determined on groups of 10 rats treated orally with 500, 1000, 1500 and 2000 mg/kg of the test compound by means of a stomach tube.
# in vivo = details: rat, in vivo, po
# Method: as §1, with “medium.” for “medium. The results were statistically evaluated by Dunnett's test (C. V. Dunnett.: J.A. Stat. Ass., 40, 1096, 1955).”
# as §3
# rats [4] = experiment: Antipyretic activity, fever induced by brewer's yeast in rats (Table V); assay type: in vivo, male Sprague-Dawley rats
# Method: as §1
# The antipyretic activity was investigated in rats by the method of Niemegeers et al. (see Arzneim.Forsch. 25, 1519, 1975). The rectal temperature was measured immediately before and 4 hours after the subcutaneous injection of 1 ml/100 g body weight of a 15% brewer's yeast suspension in 1% acacia gum.
# The test compound was administered orally to groups of 5 different rats per dose 4 hours after the yeast injection. The rectal temperature was measured 0.5, 1, 1.5, 2, 2.5, 3 and 19 hours after treatment.
# as §2
# rats [5] = experiment: Ulcerogenic effect, gastric lesions in rats (Table VIII); assay type: in vivo, male Sprague-Dawley rats; details: for Body weight, mean ± standard deviation / % animals with gastric lesions / Ulcerogenic Index: single dose; for % animals with gastric lesions / Ulcerogenic Index: 16 h
# Method: as §1
# The ulcerogenic effect was determined in rats by the method of Niemegeers et al. (Arzneimittel-Forschung 25, 1537, 1975). A single oral dose was administered to groups of 15 rats fasted for 9 hours before treatment and kept fasting throughout the whole experimental period. The animals were sacrificed 16 hours after treatment; the severity of lesions was scored according to an arbitrary scale ranging from + to ++++. For each group of rats, an ulcerogenic index was calculated according to Pauls et al., (Gastroenterology 8, 774, 1947).
# rats [6] = experiment: Effect on arthritis induced in rats by Freund's adjuvant (Table II); assay type: in vivo, male Sprague-Dawley rats; details: day 20
# mice = experiment: Analgesic activity, hot plate test in mice (Table III); assay type: in vivo, male Swiss mice
# Method: as §1
# The analgesic activity was evaluated in mice by the hot plate test according to Janssen and Jageneau (J.Pharm.Pharmac., 9, 381, 1957).
# The plate temperature was kept constant at 55° C.; the reaction time was determined before and 30, 60, 90 and 120 minutes after oral administration of the test compound. Average values after administration of the test compound were compared to those obtained before treatment.
structure (smiles),measurement,setting,value
"CC(C)=CCC(C(=O)O)C(=O)N(Nc1ccccc1)c1ccccc1 (stereo not drawn) [A, Calcium salt of (3-methyl-2-butenyl)propanedioic acid mono(1,2-diphenylhydrazide)]",Rectal temperature (normal rats),"rats [1]; 40 mg/kg oral, 0.5 h",35.96 °C
same,Rectal temperature (normal rats),"rats [1]; 40 mg/kg oral, 1 h",36.28 °C
same,Rectal temperature (normal rats),"rats [1]; 40 mg/kg oral, 1.5 h",36.34 °C
same,Rectal temperature (normal rats),"rats [1]; 40 mg/kg oral, 2 h",36.54 °C
same,Rectal temperature (normal rats),"rats [1]; 40 mg/kg oral, -0.5 h (before administration)",36.20 °C
same,Rectal temperature (normal rats),"rats [1]; 40 mg/kg oral, -1 h (before administration)",36.62 °C
same,Rectal temperature (normal rats),"rats [1]; 40 mg/kg oral, -1.5 h (before administration)",36.81 °C
same,Rectal temperature (normal rats),"rats [1]; 80 mg/kg oral, 0.5 h",36.25 °C
same,Rectal temperature (normal rats),"rats [1]; 80 mg/kg oral, 1 h",36.12 °C
same,Rectal temperature (normal rats),"rats [1]; 80 mg/kg oral, 1.5 h",36.14 °C
same,Rectal temperature (normal rats),"rats [1]; 80 mg/kg oral, 2 h",36.15 °C
same,Rectal temperature (normal rats),"rats [1]; 80 mg/kg oral, -0.5 h (before administration)",36.33 °C
same,Rectal temperature (normal rats),"rats [1]; 80 mg/kg oral, -1 h (before administration)",36.42 °C
same,Rectal temperature (normal rats),"rats [1]; 80 mg/kg oral, -1.5 h (before administration)",36.75 °C
same,Rectal temperature (normal rats),"rats [1]; 160 mg/kg oral, 0.5 h",35.71 °C
same,Rectal temperature (normal rats),"rats [1]; 160 mg/kg oral, 1 h",35.85 °C
same,Rectal temperature (normal rats),"rats [1]; 160 mg/kg oral, 1.5 h",35.91 °C
same,Rectal temperature (normal rats),"rats [1]; 160 mg/kg oral, 2 h",35.86 °C
same,Rectal temperature (normal rats),"rats [1]; 160 mg/kg oral, -0.5 h (before administration)",36.22 °C
same,Rectal temperature (normal rats),"rats [1]; 160 mg/kg oral, -1 h (before administration)",36.32 °C
same,Rectal temperature (normal rats),"rats [1]; 160 mg/kg oral, -1.5 h (before administration)",37.01 °C
same,Mean of the weights eliciting painful stimulus,"rats [2]; 40 mg/kg oral, 1 h",196.2 grams
same,Mean of the weights eliciting painful stimulus,"rats [2]; 40 mg/kg oral, 2 h",128.8 grams
same,Mean of the weights eliciting painful stimulus,"rats [2]; 40 mg/kg oral, 4 h",95.0 grams
same,Analgesic Index,rats [2]; 40 mg/kg oral,1.49
same,Mean of the weights eliciting painful stimulus,"rats [2]; 80 mg/kg oral, 1 h",192.6 grams
same,Mean of the weights eliciting painful stimulus,"rats [2]; 80 mg/kg oral, 2 h",147.6 grams
same,Mean of the weights eliciting painful stimulus,"rats [2]; 80 mg/kg oral, 4 h",146.2 grams
same,Analgesic Index,rats [2]; 80 mg/kg oral,1.72
same,Mean of the weights eliciting painful stimulus,"rats [2]; 160 mg/kg oral, 1 h",245.0 grams
same,Mean of the weights eliciting painful stimulus,"rats [2]; 160 mg/kg oral, 2 h",171.2 grams
same,Mean of the weights eliciting painful stimulus,"rats [2]; 160 mg/kg oral, 4 h",143.8 grams
same,Analgesic Index,rats [2]; 160 mg/kg oral,1.98
same,LD50 confidence limits,"rats [3]; rat, in vivo, po",721.30 to 1550.51 mg/kg
same,toxicity compared with prior art compound,"rats [3]; summary, Table VII",less toxic
same,LD50 at 168 h,in vivo,1060 mg/kg
same,Rectal temperature,"rats [4]; 40 mg/kg oral, 0 h (4 h after yeast, before treatment)",38.00 °C
same,Rectal temperature,"rats [4]; 40 mg/kg oral, 0.5 h",37.51 °C
same,Rectal temperature,"rats [4]; 40 mg/kg oral, 1 h",38.41 °C
same,Rectal temperature,"rats [4]; 40 mg/kg oral, 1.5 h",38.24 °C
same,Rectal temperature,"rats [4]; 40 mg/kg oral, 2 h",38.23 °C
same,Rectal temperature,"rats [4]; 40 mg/kg oral, 2.5 h",38.28 °C
same,Rectal temperature,"rats [4]; 40 mg/kg oral, 3 h",38.10 °C
same,Rectal temperature,"rats [4]; 40 mg/kg oral, 19 h",37.51 °C
same,Rectal temperature,"rats [4]; 40 mg/kg oral, -4 h (before yeast)",37.00 °C
same,Rectal temperature,"rats [4]; 80 mg/kg oral, 0 h (4 h after yeast, before treatment)",38.14 °C
same,Rectal temperature,"rats [4]; 80 mg/kg oral, 0.5 h",37.16 °C
same,Rectal temperature,"rats [4]; 80 mg/kg oral, 1 h",37.47 °C
same,Rectal temperature,"rats [4]; 80 mg/kg oral, 1.5 h",37.54 °C
same,Rectal temperature,"rats [4]; 80 mg/kg oral, 2 h",37.57 °C
same,Rectal temperature,"rats [4]; 80 mg/kg oral, 2.5 h",37.47 °C
same,Rectal temperature,"rats [4]; 80 mg/kg oral, 3 h",37.47 °C
same,Rectal temperature,"rats [4]; 80 mg/kg oral, 19 h",36.75 °C
same,Rectal temperature,"rats [4]; 80 mg/kg oral, -4 h (before yeast)",37.06 °C
same,Rectal temperature,"rats [4]; 160 mg/kg oral, 0 h (4 h after yeast, before treatment)",38.06 °C
same,Rectal temperature,"rats [4]; 160 mg/kg oral, 0.5 h",37.14 °C
same,Rectal temperature,"rats [4]; 160 mg/kg oral, 1 h",37.20 °C
same,Rectal temperature,"rats [4]; 160 mg/kg oral, 1.5 h",37.62 °C
same,Rectal temperature,"rats [4]; 160 mg/kg oral, 2 h",37.67 °C
same,Rectal temperature,"rats [4]; 160 mg/kg oral, 2.5 h",37.58 °C
same,Rectal temperature,"rats [4]; 160 mg/kg oral, 3 h",37.76 °C
same,Rectal temperature,"rats [4]; 160 mg/kg oral, 19 h",37.86 °C
same,Rectal temperature,"rats [4]; 160 mg/kg oral, -4 h (before yeast)",36.46 °C
same,"Body weight, mean ± standard deviation",rats [5]; 40 mg/kg oral,206.67 ± 9.00 grams
same,% animals with gastric lesions,rats [5]; 40 mg/kg oral,0%
same,Ulcerogenic Index,rats [5]; 40 mg/kg oral,0
same,"Body weight, mean ± standard deviation",rats [5]; 80 mg/kg oral,205.33 ± 6.40 grams
same,% animals with gastric lesions,rats [5]; 80 mg/kg oral,0%
same,Ulcerogenic Index,rats [5]; 80 mg/kg oral,0
same,"Body weight, mean ± standard deviation",rats [5]; 160 mg/kg oral,212.67 ± 12.23 grams
same,% animals with gastric lesions,rats [5]; 160 mg/kg oral,0%
same,Ulcerogenic Index,rats [5]; 160 mg/kg oral,0
same,"Body weight, mean ± standard deviation",rats [5]; 320 mg/kg oral,218.67 ± 6.40 grams
same,% animals with gastric lesions,rats [5]; 320 mg/kg oral,46.66%
same,Ulcerogenic Index,rats [5]; 320 mg/kg oral,71.38
same,ulcerogenic effect compared with prior art compound,"rats [5]; summary, Table VIII",less ulcerogenic
same,% Inhibition,rats [6]; 40 mg/kg oral,34%
same,% Inhibition,rats [6]; 80 mg/kg oral,35%
same,% Inhibition,rats [6]; 160 mg/kg oral,45%
same,Reaction time,"mice; 50 mg/kg oral, 0 (before administration)",15.40 ± 2.76 s
same,Reaction time,"mice; 50 mg/kg oral, 30 min",16.70 ± 3.86 s
same,Reaction time,"mice; 100 mg/kg oral, 0 (before administration)",12.90 ± 3.21 s
same,Reaction time,"mice; 200 mg/kg oral, 0 (before administration)",14.40 ± 2.95 s
same,analgesic activity in the hot plate test compared with bumadizon calcium,"mice; summary, Table III","higher, begins earlier and lasts longer than that of bumadizon calcium"
